Data as given in paper PMC12072002, “Site-Directed Mutagenesis Increased the Catalytic Activity and Stability of Oenococcus oeni β-Glucosidase: Characterization of Enzymatic Properties and Exploration of Mechanisms” (International Journal of Molecular Sciences, 2025).
Like-named read-outs stand apart in the source and are kept apart here.

Assays:
Assay type in all cases: biochemical, Oenococcus oeni SD-2a
[1] = target: wild-type enzyme (β-glucosidase BGL0224); assay: Effects of metal ions and additives on enzyme activity (p-NPG hydrolysis, IC50); settings: for IC50 / IC50 on Wild-Type Enzyme: metal ions and additives, Concentration 5 mM, optimum temperature and pH; for effect on enzyme activity of the wild-type enzyme: in words
Method: (§1) The method for the determination of the effects of different metal ions and additives on enzyme activity was referred to Zhou et al., with slight modifications. To determine the effects of metal ions and some additives on the BGLs’ activity, lyophilized powders of the wild-type and mutant BGLs were formulated into solutions with a final concentration of 10 mg/mL using 20 mM sodium phosphate buffer as well as 25 mM of p-NPG substrate solution and different concentrations (0.1 mM, 0.5 mM, 1.0 mM, 5.0 mM and 10 mM) of metal ion solutions (K^+, Na^+, Li^+, Ag^+, Mg^2+, Zn^2+, Ba^2+, Ca^2+, Cu^2+, Mn^2+, Fe^2+ and Fe^3+) and additive solutions (SDS, DTT, EDTA, TritonX-100 and Tween-80). The enzyme solutions (10 μL), p-NPG solution (490 μL) and different concentrations of additive solutions (500 μL) were mixed well. The reaction lasted for 30 min under the optimal reaction conditions of the enzyme. Then, 1mL 1 M Na2CO3 was added to terminate the reaction. The absorbance value of the reaction system was measured at 420 nm and the activity of the BGLs was calculated according to the standard curve. The IC50 (half of the maximum inhibitory concentration) of the reagents on BGL activity was calculated using a logistic function with Growth/Sigmoidal-type nonlinear fitting in Origin Pro 8.0.

[2] = target: mutant III (β-glucosidase F133K); assay: as above; settings: for IC50 / IC50 on Mutant III: metal ions and additives, Concentration 5 mM, optimum temperature and pH; for effect on enzyme activity of mutant III: in words
Method: as §1

[3] = target: mutant IV (β-glucosidase N181R); parameters: key to IC50 on Mutant IV: “-”represents no enzymatic activity; settings: for effect on enzyme activity of mutant IV: in words
Method: The method for the determination of the effects of different metal ions and additives on enzyme activity was referred to Zhou et al., with slight modifications. […] The enzyme solutions (10 μL), p-NPG solution (490 μL) and different concentrations of additive solutions (500 μL) were mixed well. The reaction lasted for 30 min under the optimal reaction conditions of the enzyme. Then, 1mL 1 M Na2CO3 was added to terminate the reaction. The absorbance value of the reaction system was measured at 420 nm and the activity of the BGLs was calculated according to the standard curve. The IC50 (half of the maximum inhibitory concentration) of the reagents on BGL activity was calculated using a logistic function with Growth/Sigmoidal-type nonlinear fitting in Origin Pro 8.0.

[4] = target: wild-type enzyme (β-glucosidase BGL0224); assay: Effects of metal ions and additives on enzyme activity (p-NPG hydrolysis, IC50); parameters: key: “-”represents no enzymatic activity; settings: additive concentration 0.2%
[5] = target: mutant III (β-glucosidase F133K); assay: as above; parameters: key: “-”represents no enzymatic activity; settings: additive concentration 0.2%
[6] = metal ions and additives, Concentration 5 mM, optimum temperature and pH

Compound	IC50 [1]	IC50 [2]	IC50 [3, 6]	effect on enzyme activity of the wild-type enzyme ([1]; metal ion at 5 mM)	effect on enzyme activity of mutant III ([2]; metal ion at 5 mM)	effect on enzyme activity of mutant IV ([3]; metal ion at 5 mM)	other results
O=C(O)CN(CCN(CC(=O)O)CC(=O)O)CC(=O)O [EDTA]	6.41 mM	6.89 mM	7.16 mM				
Tween-80							IC50 on Wild-Type Enzyme [4]: -; IC50 on Mutant III [5]: -; IC50 on Mutant IV ([3]; additive concentration 0.2%): -
Triton X-100 [Triton-X100]							IC50 on Wild-Type Enzyme [4]: -; IC50 on Mutant III [5]: -; IC50 on Mutant IV ([3]; additive concentration 0.2%): -
[Ba+2] [Ba^2+]				enhanced	enhanced	enhanced	IC50 on Wild-Type Enzyme [1]: Activator; IC50 on Mutant III [2]: Activator; IC50 on Mutant IV [3, 6]: Activator
[Mn+2] [Mn^2+]	3.76 mM				promoted	promoted	inhibition of wild-type enzyme activity ([1]; metal ion at 5 mM): 76.51%; IC50 on Mutant III [2]: Activator; IC50 on Mutant IV [3, 6]: Activator
CCCCCCCCCCCCOS(=O)(=O)[O-].[Na+] [SDS]	7.89 mM	6.72 mM	6.29 mM				
[Li+] [Li^+]				enhanced	enhanced	enhanced	IC50 on Wild-Type Enzyme [1]: Activator; IC50 on Mutant III [2]: Activator; IC50 on Mutant IV [3, 6]: Activator
[K+] [K^+]			2.42 mM	enhanced	enhanced		IC50 on Wild-Type Enzyme [1]: Activator; IC50 on Mutant III [2]: Activator; inhibition rate on mutant IV ([3]; metal ion at 5 mM): 85.02%
[Zn+2] [Zn^2+]	3.87 mM	3.19 mM	2.94 mM	inhibitory effects	inhibitory effects	inhibitory effects	
[Ca+2] [Ca^2+]	4.09 mM	3.38 mM	3.28 mM	inhibitory effects	inhibitory effects	inhibitory effects	
[Cu+2] [Cu^2+]	3.12 mM	3.48 mM	1.58 mM	inhibitory effects	inhibitory effects	inhibitory effects	
[Na+] [Na^+]		0.929 mM		increased		increased	IC50 on Wild-Type Enzyme [1]: Activator; inhibition rate on mutant III ([2]; metal ion at 5 mM): 97.45%; IC50 on Mutant IV [3, 6]: Activator
[Fe+2] [Fe^2+]	2.83 mM	3.96 mM	4.43 mM	inhibitory effects	inhibitory effects	inhibitory effects	
O[C@@H](CS)[C@@H](O)CS [DTT]	7.93 mM	5.49 mM	6.17 mM				
[Ag+] [Ag^+]	7.43 mM	3.03 mM	2.93 mM	inhibitory effects	inhibitory effects	inhibitory effects	
[Mg+2] [Mg^2+]	8.92 mM	3.37 mM	5.35 mM	inhibitory effects	inhibitory effects	inhibitory effects	
